The text below walks through data of patent US20260232682A1, “GSPT1 DEGRADER COMPOUNDS” (Captor Therapeutics S.A., priority 2023, published 2026).

For assay [1], the target named is [CK1α]-[compound]-[CRBN/DDB1] ternary complex (Homo sapiens, UniProt P48729+Q96SW2). Put plainly: AlphaLISA assay for off-target recruitment detection, CK1α. In kind it is binding. Particulars: 1 μM compound; normalized to FPFT-2216; read-out: Normalized ternary complex response, CK1α. How it is done: (§1) The ability of the molecular glue compounds of the invention to mediate the proximity of CRBN with its known neo-substrates (shown in Table 3) was assessed using AlphaLISA to detect the formation of a [neo-substrate]-[compound of formula (I)]-[CRBN/DDB1] ternary complex.
Sequence of [CK1α]-[compound]-[CRBN/DDB1] ternary complex (P48729 whole entry): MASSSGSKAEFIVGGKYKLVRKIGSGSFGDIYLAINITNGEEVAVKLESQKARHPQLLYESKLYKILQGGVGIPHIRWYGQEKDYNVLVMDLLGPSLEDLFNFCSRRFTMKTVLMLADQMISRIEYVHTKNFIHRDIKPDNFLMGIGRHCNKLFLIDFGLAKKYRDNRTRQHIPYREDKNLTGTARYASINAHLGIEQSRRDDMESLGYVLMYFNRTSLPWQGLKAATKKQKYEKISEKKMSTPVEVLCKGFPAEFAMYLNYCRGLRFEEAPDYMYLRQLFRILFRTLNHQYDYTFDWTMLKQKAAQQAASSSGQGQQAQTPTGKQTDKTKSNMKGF
Sequence of [CK1α]-[compound]-[CRBN/DDB1] ternary complex (Q96SW2 whole entry): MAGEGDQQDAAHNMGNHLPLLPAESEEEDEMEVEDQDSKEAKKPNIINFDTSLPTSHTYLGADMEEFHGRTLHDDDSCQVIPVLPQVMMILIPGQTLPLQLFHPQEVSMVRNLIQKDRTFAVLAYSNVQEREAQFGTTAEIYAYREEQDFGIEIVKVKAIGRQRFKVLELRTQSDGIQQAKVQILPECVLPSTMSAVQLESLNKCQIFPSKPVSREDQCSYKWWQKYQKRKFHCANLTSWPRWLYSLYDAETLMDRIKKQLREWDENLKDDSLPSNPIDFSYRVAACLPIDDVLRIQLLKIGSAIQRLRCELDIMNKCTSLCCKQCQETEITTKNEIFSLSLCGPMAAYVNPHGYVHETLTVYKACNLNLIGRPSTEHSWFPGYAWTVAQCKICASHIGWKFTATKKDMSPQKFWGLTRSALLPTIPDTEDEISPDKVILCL
Sequence of [CK1α]-[compound]-[CRBN/DDB1] ternary complex (Q16531 whole entry partner): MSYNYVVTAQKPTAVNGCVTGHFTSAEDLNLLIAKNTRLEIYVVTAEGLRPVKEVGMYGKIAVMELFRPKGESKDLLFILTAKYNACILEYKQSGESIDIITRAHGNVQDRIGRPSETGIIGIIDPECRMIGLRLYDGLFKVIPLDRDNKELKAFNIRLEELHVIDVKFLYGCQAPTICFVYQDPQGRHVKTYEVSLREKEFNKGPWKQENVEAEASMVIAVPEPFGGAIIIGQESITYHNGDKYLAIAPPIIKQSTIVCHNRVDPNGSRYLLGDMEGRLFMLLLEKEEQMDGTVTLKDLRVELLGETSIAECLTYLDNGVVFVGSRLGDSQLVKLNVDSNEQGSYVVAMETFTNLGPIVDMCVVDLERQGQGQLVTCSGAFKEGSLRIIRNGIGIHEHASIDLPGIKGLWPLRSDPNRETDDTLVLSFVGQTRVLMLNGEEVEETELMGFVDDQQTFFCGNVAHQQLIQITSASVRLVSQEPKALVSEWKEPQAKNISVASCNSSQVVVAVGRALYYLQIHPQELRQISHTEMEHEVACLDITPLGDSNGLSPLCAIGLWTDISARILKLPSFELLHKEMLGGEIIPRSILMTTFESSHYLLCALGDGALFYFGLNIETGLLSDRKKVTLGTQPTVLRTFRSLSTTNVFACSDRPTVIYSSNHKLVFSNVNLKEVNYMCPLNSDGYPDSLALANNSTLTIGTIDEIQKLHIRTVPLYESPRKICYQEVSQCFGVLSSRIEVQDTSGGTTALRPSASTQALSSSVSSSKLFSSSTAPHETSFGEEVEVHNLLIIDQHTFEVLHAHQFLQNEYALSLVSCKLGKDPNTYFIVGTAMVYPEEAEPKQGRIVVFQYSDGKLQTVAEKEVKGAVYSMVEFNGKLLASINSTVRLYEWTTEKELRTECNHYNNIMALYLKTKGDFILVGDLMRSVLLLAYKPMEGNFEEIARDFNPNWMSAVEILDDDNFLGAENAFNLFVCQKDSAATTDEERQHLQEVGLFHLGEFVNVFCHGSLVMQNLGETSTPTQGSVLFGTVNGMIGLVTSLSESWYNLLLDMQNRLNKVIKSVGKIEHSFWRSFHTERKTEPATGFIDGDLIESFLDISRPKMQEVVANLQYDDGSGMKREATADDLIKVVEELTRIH
(§2) Two types of protein solution were prepared: • neo-substrate, 40 μg/ml AlphaScreen Donor Beads (Table 3) in PBS (10 mM phosphate buffer, 137 mM NaCL, 2.7 mM KCl, pH 7.4) buffer supplemented with Tween-20 (Table 3) and 1 mM DTT, • 200 nM 6×His-CRBN/DDB1, 40 μg/ml AlphaLISA Anti-6×His Acceptor beads in PBS buffer with Tween-20 (Table 3) and 1 mM DTT.
(§3) The prepared solutions were incubated at room temperature for 30 min and then the solution containing the donor beads was mixed with the solution containing the acceptor beads.
(§4) The tested compounds were dispensed onto a white 384-well AlphaPlate 384 SW. DMSO was backfilled to all wells, resulting in a final DMSO content of 2%. Wells containing only DMSO served as background. Next, 10 μl of solution with donor and acceptor beads was added to the wells.
(§5) The plate was sealed with transparent film and shaken using a VibroTurbulator for 60 sec at room temperature, level 3. The plate was then spun down shortly (10 sec, 1000 rcf, room temperature) and incubated at 25° C. for 30 min.
(§6) The read-out was performed with PerkinElmer Enspire Multimode Plate Reader (method for AlphaLISA 384-well low volume, Filterset: λexc=680 nm, λem=615 nm).
(§7) The results were analyzed as follows: • 1) an average of luminescence for background signal was calculated and used as a negative control; • 2) an average of the maximum measured luminescence for reference compound (Table 3) was calculated and used as an internal positive control; • 3) raw luminescence values were normalized against positive and negative controls; • 4) Normalized responses to reference molecular glue were determined.
For orientation: Bead proximity is the source of the signal in Alpha formats.

Assay [2] concerns the target T1, [SALL4 ZF2]-[compound]-[CRBN/DDB1] ternary complex (Homo sapiens, UniProt Q96SW2+Q9UJQ4).
T1 construct: SALL4 ZF2
Put plainly: AlphaLISA assay for off-target recruitment detection, SALL4 ZF2. Particulars: 1 μM compound; normalized to Lenalidomide; read-out: Normalized ternary complex response, SALL4 ZF2. The class given is binding. On the procedure:
as §1, §2, §3, §4, §5, §6, §7

The target of assay [3] is T2, [GSPT1]-[compound of formula (I)]-[CRBN/DDB1] complex (Homo sapiens, UniProt P15170+Q96SW2). Briefly: AlphaLISA ternary complex formation assay (GSPT1). Particulars: 0.5 h; 1 μM compound; normalized to reference compound CC-885; read-out: Normalized AlphaLISA ternary complex average signal at 1 μM molecule. In kind it is binding. On the procedure: The effect of the molecular glue compounds of the invention on the formation of a ternary complex composed of [GSPT1]-[compound of formula (I)]-[CRBN/DDB1] was investigated with two methods: AlphaLISA dose response assay or HTRF ternary complex assay.
T2 sequence (P15170 whole entry): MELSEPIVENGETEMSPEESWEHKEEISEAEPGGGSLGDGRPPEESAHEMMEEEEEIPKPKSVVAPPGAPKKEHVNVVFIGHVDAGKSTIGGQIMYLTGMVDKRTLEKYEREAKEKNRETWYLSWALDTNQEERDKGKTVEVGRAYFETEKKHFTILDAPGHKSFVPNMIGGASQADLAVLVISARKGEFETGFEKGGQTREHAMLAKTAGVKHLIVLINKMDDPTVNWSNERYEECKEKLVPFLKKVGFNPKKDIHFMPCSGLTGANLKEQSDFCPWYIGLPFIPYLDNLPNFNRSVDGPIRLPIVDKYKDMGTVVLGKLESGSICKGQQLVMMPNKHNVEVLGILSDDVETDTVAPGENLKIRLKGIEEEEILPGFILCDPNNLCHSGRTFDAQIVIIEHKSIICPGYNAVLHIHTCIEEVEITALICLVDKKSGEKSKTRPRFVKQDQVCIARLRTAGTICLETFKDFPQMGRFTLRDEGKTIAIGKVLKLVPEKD
T2 sequence (Q96SW2 whole entry): as the sequence (Q96SW2 whole entry) above
T2 sequence (Q16531 whole entry partner): as the sequence (Q16531 whole entry partner) above
Two types of protein solution were prepared: • 200 nM biotinylated GSPT1 (Table 3), 40 μg/ml AlphaScreen Streptavidin-coated Donor Beads in HBS (10 mM HEPES, 150 mM NaCL, pH 7.4) buffer with 0.1% Tween-20 and 1 mM DTT, • 200 nM 6×His-CRBN/DDB1, 40 μg/ml AlphaLISA Anti-6×His Acceptor beads in HBS buffer with 0.1% Tween-20 and 1 mM DTT.
as §3, §4, §5, §6
The results were analyzed as follows: • 1) an average of luminescence for background signal was calculated and used as a negative control; • 2) average of the maximum measured luminescence for reference compound (structure shown in Table 3 below) was calculated and used as an internal positive control; • 3) raw luminescence values were normalized against positive and negative controls; • 4) Normalized responses to positive control were determined.

Assay [4] has as its target CRBN/DDB1 protein complex (Homo sapiens, UniProt Q96SW2). Briefly: CRBN displacement TR-FRET assay. Particulars: Thalidomide-Red tracer, 6×His-CRBN/DDB1; read-out: CRBN binding Ki. How it is done: CRBN/DDB1 protein complex was mixed with Thalidomide-Red and a compound to be tested (the “test compound”). The test solution contained PPI Europium detection buffer, 1 mM DTT, 6.8 nM Thalidomide-Red (the tracer), 5 nM 6×His-CRBN/DDB1 protein, 0.5 nM Anti-6× His-Eu cryptate, 1% DMSO. The test solution was added to a 384-well assay plate.
The plate was spun-down (1 min, 1000 rpm, 22° C.) and then shaken using a VibroTurbulator for 30 sec at room temperature (20-25° C.), with the frequency set to level 10. The assay plate with protein and the tracer was incubated for 180 min at room temperature (20-25° C.) prior to read-out with a plate reader. The read-out was performed with plate reader (Pherastar, BMG Labtech) in time resolved fluorescence mode. Filter settings: TR 337 665 620.
The CRBN displacement TR-FRET experiment was carried out with various concentrations of the test compounds in order to measure Ki values.
The Ki values of competitive inhibitors were calculated using the equation based on the IC50 values of relationship between compound concentration and measured […], the Kd value of the Thalidomide-Red and CRBN/DDB1 complex, and the concentrations of the protein and the tracer in the displacement assay (as described by Cheng and Prusoff, Biochem Pharmacol 1973; 22:3099-3108).
(Time-resolved FRET reads energy transfer from a long-lived donor to a nearby acceptor.)

Assay [5] deals with T2, [GSPT1]-[compound of formula (I)]-[CRBN/DDB1] complex. Put plainly: HTRF ternary complex assay (GSPT1). In kind it is binding. Particulars: read-out: HTRF ternary complex Average pEC50 by molecule (converted). On the procedure:
The effect of the molecular glue compounds of the invention on the formation of a ternary complex composed of [GSPT1]-[compound of formula (I)]-[CRBN/DDB1] was investigated.
Mix solution of proteins and reagents was prepared: • 48 nM GSPT1, 52.8 nM 6×His-CRBN/DDB1, 3 nM of Streptavidin-Eu cryptate ([…]) and 6.67 nM of Anti-6×his-d2 ([…]) was prepared in PPI Europium detection buffer (purchased from Cisbio) with 1 mM DTT.
The tested compounds in dose-response were dispensed onto a white 384-well low volume plate (Greiner, 784075). DMSO was backfilled to all wells, resulting in a final DMSO content of 0.5%. Wells containing only DMSO served as background.
The plate was sealed with transparent film and shaken using a VibroTurbulator for 60 sec at level 3.
The plate was then spun down shortly (10 sec, 1000 rcf) and incubated at 25° C. for 180 min.
The read-out was performed with plate reader (Pherastar, BMG Labtech) in time resolved fluorescence mode. Filter settings: TR 337 665 620.
The results were analyzed as follows: • 1) an average of fluorescence for background signal was calculated and used as a negative control; • 2) raw fluorescence values for tested compounds were normalized against negative controls; • 3) saturation curve was fitted to specific binding with Hill slope model; • 4) EC50 and pEC50 values were determined.

Assay [6] deals with T3, [IKZF1 ZF2]-[compound]-[CRBN/DDB1] ternary complex (Homo sapiens, UniProt Q13422+Q96SW2).
T3 construct: IKZF1 ZF2
T3 sequence (Q13422 145-167 limits assumed): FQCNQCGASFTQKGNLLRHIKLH
T3 sequence (Q96SW2 whole entry): as the sequence (Q96SW2 whole entry) above
T3 sequence (Q16531 whole entry partner): as the sequence (Q16531 whole entry partner) above
Briefly: AlphaLISA assay for off-target recruitment detection, IKZF1 ZF2. Particulars: 1 μM compound; normalized to Lenalidomide; read-out: Normalized ternary complex response, IKZF1 ZF2. In kind it is binding. How it is done: as §1, §2, §3, §4, §5, §6, §7

Assay [7] addresses T4, [IKZF2 ZF2]-[compound]-[CRBN/DDB1] ternary complex (Homo sapiens, UniProt Q96SW2+Q9UKS7).
T4 construct: IKZF2 ZF2
Put plainly: AlphaLISA assay for off-target recruitment detection, IKZF2 ZF2. The class given is binding. Particulars: 1 μM compound; normalized to Helios modulator; read-out: Normalized ternary complex response, IKZF2 ZF2. How it is done: as §1, §2, §3, §4, §5, §6, §7

T4 sequence (Q9UKS7 140-162 limits assumed): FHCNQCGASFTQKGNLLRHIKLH
T4 sequence (Q96SW2 whole entry): as the sequence (Q96SW2 whole entry) above
T4 sequence (Q16531 whole entry partner): as the sequence (Q16531 whole entry partner) above
Sequence of CRBN/DDB1 protein complex (Q96SW2 whole entry, species assumed): as the sequence (Q96SW2 whole entry) above
Sequence of CRBN/DDB1 protein complex (Q16531 whole entry partner, species assumed): as the sequence (Q16531 whole entry partner) above
T1 sequence (Q9UJQ4 410-432 limits assumed): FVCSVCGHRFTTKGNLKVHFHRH
T1 sequence (Q96SW2 whole entry): as the sequence (Q96SW2 whole entry) above
T1 sequence (Q16531 whole entry partner): as the sequence (Q16531 whole entry partner) above

Regarding `Cc1ccc(-c2nnc(NCc3ccc4cc(C5CCC(=O)NC5=O)c(C)nc4c3)o2)cc1Cl` (stereo not drawn) [Compound 13, 3-(7-(((5-(3-chloro-4-methylphenyl)-1,3,4-oxadiazol-2-yl)amino)methyl)-2-methylquinolin-3-yl)piperidine-2,6-dione], the activation at 1 µM is under 10% in assay [1]; under 10% in assay [2]; 10 to 50% in assay [3]; under 10% in assay [6]; under 10% in assay [7]. The Ki in assay [4] was under 500 nM. Further, the EC50 in assay [5] was over 3160 nM.
As to `Cc1ccc(NC(=O)OCc2cc3nc(C)c(C4CCC(=O)NC4=O)cc3cc2C)cc1Cl` (stereo not drawn) [Compound 68, (3-(2,6-dioxopiperidin-3-yl)-2,6-dimethylquinolin-7-yl)methyl (3-chloro-4-methylphenyl)carbamate], the activation at 1 µM in assay [1], in assay [2], in assay [3], in assay [6] and in assay [7] was under 10% throughout. Moreover, the Ki in assay [4] is over 1000 nM. Further, in assay [5], the EC50 was over 3160 nM.
With `Cc1nc2ccc(COC(=O)NC3CCCCC3)cc2cc1N1CCC(=O)NC1=O` [Compound 60, (3-(2,4-dioxotetrahydropyrimidin-1(2H)-yl)-2-methylquinolin-6-yl)methyl cyclohexylcarbamate], the activation at 1 µM is under 10% in assay [1]; at least 50% in assay [2]; 10 to 50% in assay [3]; 10 to 25% in assay [6]; under 10% in assay [7]. The Ki in assay [4] is 500 to 1000 nM. The EC50 in assay [5] is 316 to 3160 nM.
Turning to `Cc1nc2cc(OC(C)C(=O)NC3CCCCC3)ccc2cc1C1CCC(=O)NC1=O` (stereo not drawn) [Compound 36, N-cyclohexyl-2-((3-(2,6-dioxopiperidin-3-yl)-2-methylquinolin-7-yl)oxy)propenamide], the activation at 1 µM in assay [1], in assay [2], in assay [3], in assay [6] and in assay [7] was under 10% throughout. In assay [4], the Ki was under 500 nM. Moreover, the EC50 in assay [5] was over 3160 nM.
On to `Cc1nc2ccc(CNC(=O)C(=O)N3CCC(C(C)(C)C)CC3)cc2cc1C1CCC(=O)NC1=O` (stereo not drawn) [Compound 23, 2-(4-(tert-butyl)piperidin-1-yl)-N-((3-(2,6-dioxopiperidin-3-yl)-2-methylquinolin-6-yl)methyl)-2-oxoacetamide], for which the activation at 1 µM in assay [1] is under 10%; in assay [2], 25 to 50%; in assay [3], 10 to 50%; in assay [6], under 10%; in assay [7], under 10%. In addition, the Ki in assay [4] is under 500 nM. Besides, the EC50 in assay [5] is over 3160 nM.
For `Cc1ccc(Nc2c(NCc3ccc4cc(C5CCC(=O)NC5=O)c(C)nc4c3)c(=O)c2=O)cc1Cl` (stereo not drawn) [Compound 3, 3-(7-(((2-((3-chloro-4-methylphenyl)amino)-3,4-dioxocyclobut-1-en-1-yl)amino)methyl)-2-methylquinolin-3-yl)piperidine-2,6-dione], the activation at 1 µM in assay [1] was under 10%; in assay [2], under 10%; in assay [3], 10 to 50%; in assay [6] it was under 10%; in assay [7], under 10%. The Ki in assay [4] was over 1000 nM. The EC50 in assay [5] was over 3160 nM.
As for `Cc1ccc(NCC(=O)NCc2ccc3nc(C)c(C4CCC(=O)NC4=O)cc3c2)cc1Cl` (stereo not drawn) [Compound 26, 2-((3-chloro-4-methylphenyl)amino)-N-((3-(2,6-dioxopiperidin-3-yl)-2-methylquinolin-6-yl)methyl)acetamide], the activation at 1 µM was under 10% in assay [1]; 25 to 50% in assay [2]; 10 to 50% in assay [3]; under 10% in assay [6]; under 10% in assay [7]. Besides, the Ki in assay [4] lay in the range of 500 to 1000 nM. Moreover, the EC50 in assay [5] was 316 to 3160 nM.
For `Cc1nc2ccc(COC(=O)Nc3cc(OC(F)(F)F)ccc3F)cc2cc1C1CCC(=O)NC1=O` (stereo not drawn) [Compound 7, (3-(2,6-dioxopiperidin-3-yl)-2-methylquinolin-6-yl)methyl (2-fluoro-5-(trifluoromethoxy)phenyl)carbamate], the activation at 1 µM in assay [1] was under 10%; in assay [2], at least 50%; in assay [3] it was 10 to 50%; in assay [6], 25 to 50%; in assay [7], under 10%. The Ki in assay [4] is under 500 nM. For the same compound, the EC50 in assay [5] is over 3160 nM.
Consider `Cc1nc2cc(COC(=O)NC3CCN(c4ccccc4)CC3)ccc2cc1C1CCC(=O)NC1=O` (stereo not drawn) [Compound 47, (3-(2,6-dioxopiperidin-3-yl)-2-methylquinolin-7-yl)methyl (1-phenylpiperidin-4-yl)carbamate], for which the activation at 1 µM in assay [1] is under 10%; in assay [2], under 10%; in assay [3] it was 10 to 50%; in assay [6] it was under 10%; in assay [7], under 10%. In addition, in assay [4], the Ki was under 500 nM. Further, the EC50 in assay [5] is over 3160 nM.

The term Ki denotes the dissociation constant of the complex between target and ligand, obtained from inhibition or displacement.
